In patent US20240208962A1, “MICROBIOCIDAL QUINOLINE/QUINOXALINE BENZOTHIAZINE DERIVATIVES” (SYNGENTA CROP PROTECTION AG, priority 2021, published 2024):

How the values were obtained:
Botrytis cinerea = assay: Comparative: Botrytis cinerea / tomato / preventative; type: in vivo; conditions: rate of application 200 ppm, Botrytis cinerea on tomato, emulsifiable concentrate, 5-6 days after application
[1] = test system: Colletotrichum lagenarium; assay: Comparative: Colletotrichum lagenarium / cucumber / preventative (Anthracnose); type: in vivo; conditions: rate of application 200 ppm, Colletotrichum lagenarium on cucumber cv. Wisconsin, emulsifiable concentrate, 6-8 days after application
[2] = test system: Mycosphaerella graminicola (Septoria tritici); assay: Comparative: Mycosphaerella graminicola (Septoria tritici) on wheat / preventative, emulsifiable concentrate; type: in vivo; conditions: rate of application 60 ppm, Mycosphaerella graminicola on wheat cv. Riband, 16 to 19 days after application
Venturia inaequalis = assay: Comparative: Venturia inaequalis / apple / preventative (Scab on apple); type: in vivo; conditions: rate of application 200 ppm, Venturia inaequalis on apple seedlings, emulsifiable concentrate, 11-13 days after application
[3] = test system: Botryotinia fuckeliana (Botrytis cinerea); assay: Botryotinia fuckeliana (Botrytis cinerea) / liquid culture (Gray mould); type: cell-based; conditions: liquid culture Vogels broth, 3-4 days after application, read-out: control of Botryotinia fuckeliana (inhibition of growth, photometric)
[4] = test system: Mycosphaerella graminicola (Septoria tritici); assay: Mycosphaerella graminicola (Septoria tritici) on wheat / preventative; type: in vivo; conditions: Zymoseptoria tritici, wheat plants cv. Riband, preventative spray, 16 to 19 days after application, read-out: control of Mycosphaerella graminicola compared to untreated control
[5] = test system: Glomerella lagenarium (Colletotrichum lagenarium); assay: Glomerella lagenarium (Colletotrichum lagenarium) / liquid culture (Anthracnose); type: cell-based; conditions: Colletotrichum orbiculare, liquid culture PDB, 3-4 days after application, read-out: control of Glomerella lagenarium (inhibition of growth, photometric)
[6] = test system: Monographella nivalis (Microdochium nivale); assay: Monographella nivalis (Microdochium nivale) / liquid culture (foot rot cereals); type: cell-based; conditions: liquid culture PDB, 4 to 5 days after application, read-out: control of Monographella nivalis (inhibition of growth, photometric)
Fusarium culmorum = assay: microbe, parasite or virus in culture; type: cell-based; conditions: read-out: control of Fusarium culmorum (inhibition of growth, photometric)

CC1(C)N=C(c2cnc3c(F)cccc3c2)c2cccc(F)c2S1 [Comparative compound A, reference compound]
Efficacy (% control) (Botrytis cinerea): 95 % control | Efficacy (% control) [1]: 80 % control | Efficacy (% control) [2]: 11 % control | Efficacy (% control) (Venturia inaequalis): 100 % control

Cc1cccc2c1SC(C)(C)N=C2c1cnc2c(F)c(F)ccc2c1 [Compound E.01, 4-(7,8-difluoro-3-quinolyl)-2,2,8-trimethyl-1,3-benzothiazine]
inhibition at 20 ppm [3]: ≥ 80% | Efficacy (% control) (Botrytis cinerea): 97 % control | Efficacy (% control) [1]: 97 % control | Efficacy (% control) [2]: 72 % control | Efficacy (% control) (Venturia inaequalis): 97 % control | pest or weed control at 60 ppm [4]: ≥ 80% | melting point: 137 to 139 °C | inhibition at 20 ppm [5]: ≥ 80%

CC1(C)N=C(c2cnc3c(F)c(F)ccc3c2)c2cccc(Cl)c2S1 [Compound E.02, 8-chloro-4-(7,8-difluoro-3-quinolyl)-2,2-dimethyl-1,3-benzothiazine]
inhibition at 20 ppm [3]: ≥ 80% | Efficacy (% control) (Botrytis cinerea): 95 % control | Efficacy (% control) [1]: 97 % control | Efficacy (% control) [2]: 99 % control | Efficacy (% control) (Venturia inaequalis): 97 % control | pest or weed control at 60 ppm [4]: ≥ 80% | melting point: 134 to 136 °C | inhibition at 20 ppm [5]: ≥ 80%

Cc1ccc2c(c1F)SC(C)(C)N=C2c1cnc2c(F)cccc2c1 [Compound E.08, 8-fluoro-4-(8-fluoro-3-quinolyl)-2,2,7-trimethyl-1,3-benzothiazine]
inhibition at 20 ppm [3]: ≥ 80% | Efficacy (% control) (Botrytis cinerea): 97 % control | Efficacy (% control) [2]: 89 % control | inhibition at 20 ppm [6]: ≥ 80% | Efficacy (% control) (Venturia inaequalis): 80 % control | pest or weed control at 60 ppm [4]: ≥ 80% | melting point: 159 to 161 °C | inhibition at 20 ppm [5]: ≥ 80% | inhibition at 20 ppm (Fusarium culmorum): ≥ 80%

CC1(C)N=C(c2cnc3c(F)cccc3c2)c2cccc(Cl)c2S1 [Compound E.12, 8-chloro-4-(8-fluoro-3-quinolyl)-2,2-dimethyl-1,3-benzothiazine]
inhibition at 20 ppm [3]: ≥ 80% | Efficacy (% control) (Botrytis cinerea): 95 % control | Efficacy (% control) [1]: 100 % control | Efficacy (% control) [2]: 92 % control | inhibition at 20 ppm [6]: ≥ 80% | Efficacy (% control) (Venturia inaequalis): 100 % control | pest or weed control at 60 ppm [4]: ≥ 80% | melting point: 158 to 160 °C | inhibition at 20 ppm [5]: ≥ 80% | inhibition at 20 ppm (Fusarium culmorum): ≥ 80%

Cc1ccc2c(c1Cl)SC(C)(C)N=C2c1cnc2c(F)cccc2c1 [Compound E.13, 8-chloro-4-(8-fluoro-3-quinolyl)-2,2,7-trimethyl-1,3-benzothiazine]
inhibition at 20 ppm [3]: ≥ 80% | Efficacy (% control) [2]: 96 % control | inhibition at 20 ppm [6]: ≥ 80% | pest or weed control at 60 ppm [4]: ≥ 80% | inhibition at 20 ppm [5]: ≥ 80% | inhibition at 20 ppm (Fusarium culmorum): ≥ 80%

Cc1cccc2c1SC(C)(C)N=C2c1cnc2c(F)cccc2c1 [Compound E.14, 4-(8-fluoro-3-quinolyl)-2,2,8-trimethyl-1,3-benzothiazine]
inhibition at 20 ppm [3]: ≥ 80% | Efficacy (% control) (Botrytis cinerea): 93 % control | Efficacy (% control) [1]: 97 % control | Efficacy (% control) [2]: 83 % control | inhibition at 20 ppm [6]: ≥ 80% | Efficacy (% control) (Venturia inaequalis): 100 % control | pest or weed control at 60 ppm [4]: ≥ 80% | inhibition at 20 ppm [5]: ≥ 80% | inhibition at 20 ppm (Fusarium culmorum): ≥ 80%

CC1(C)N=C(c2cnc3c(F)cccc3c2)c2ccc(F)c(F)c2S1 [E.03, 7,8-difluoro-4-(8-fluoro-3-quinolyl)-2,2-dimethyl-1,3-benzothiazine]
inhibition at 20 ppm [3]: ≥ 80% | inhibition at 20 ppm [6]: ≥ 80% | pest or weed control at 60 ppm [4]: ≥ 80% | inhibition at 20 ppm [5]: ≥ 80% | inhibition at 20 ppm (Fusarium culmorum): ≥ 80%

CSc1cccc2c1SC(C)(C)N=C2c1cnc2c(F)cccc2c1 [E.04, 4-(8-fluoro-3-quinolyl)-2,2-dimethyl-8-methylsulfanyl-1,3-benzothiazine]
inhibition at 20 ppm [3]: ≥ 80% | inhibition at 20 ppm [6]: ≥ 80% | inhibition at 20 ppm [5]: ≥ 80% | inhibition at 20 ppm (Fusarium culmorum): ≥ 80%

CC1(C)N=C(c2cnc3c(F)cccc3c2)c2ccc(Cl)c(Cl)c2S1 [E.05, 7,8-dichloro-4-(8-fluoro-3-quinolyl)-2,2-dimethyl-1,3-benzothiazine]
inhibition at 20 ppm [3]: ≥ 80% | inhibition at 20 ppm [6]: ≥ 80% | pest or weed control at 60 ppm [4]: ≥ 80% | inhibition at 20 ppm [5]: ≥ 80% | inhibition at 20 ppm (Fusarium culmorum): ≥ 80%

Cc1cccc2c1S[C@](C)(C(F)F)N=C2c1cnc2c(F)cccc2c1 [E.06, (2R)-2-(difluoromethyl)-4-(8-fluoro-3-quinolyl)-2,8-dimethyl-1,3-benzothiazine]
inhibition at 20 ppm [3]: ≥ 80% | inhibition at 20 ppm [6]: ≥ 80% | inhibition at 20 ppm [5]: ≥ 80% | inhibition at 20 ppm (Fusarium culmorum): ≥ 80%

CC1(C(F)F)N=C(c2cnc3c(F)cccc3c2)c2cccc(Cl)c2S1 (stereo not shown) [E.09, 8-chloro-2-(difluoromethyl)-4-(8-fluoro-3-quinolyl)-2-methyl-1,3-benzothiazine]
inhibition at 20 ppm [3]: ≥ 80% | inhibition at 20 ppm [6]: ≥ 80% | inhibition at 20 ppm [5]: ≥ 80% | inhibition at 20 ppm (Fusarium culmorum): ≥ 80%

Cc1ccc2c(c1C#N)SC(C)(C)N=C2c1cnc2c(F)cccc2c1 [E.10, 4-(8-fluoro-3-quinolyl)-2,2,7-trimethyl-1,3-benzothiazine-8-carbonitrile]
inhibition at 20 ppm [3]: ≥ 80% | inhibition at 20 ppm (Fusarium culmorum): ≥ 80%

Cc1ccc2c(c1C)SC(C)(C)N=C2c1cnc2c(F)cccc2c1 [E.11, 4-(8-fluoro-3-quinolyl)-2,2,7,8-tetramethyl-1,3-benzothiazine]
inhibition at 20 ppm [3]: ≥ 80% | inhibition at 20 ppm [6]: ≥ 80% | pest or weed control at 60 ppm [4]: ≥ 80% | inhibition at 20 ppm [5]: ≥ 80% | inhibition at 20 ppm (Fusarium culmorum): ≥ 80%

Cc1cccc2c1SC(C)(C(F)F)N=C2c1cnc2c(F)cccc2c1 (stereo not shown) [E.15, 2-(difluoromethyl)-4-(8-fluoro-3-quinolyl)-2,8-dimethyl-1,3-benzothiazine]
inhibition at 20 ppm [3]: ≥ 80% | inhibition at 20 ppm [6]: ≥ 80% | inhibition at 20 ppm [5]: ≥ 80% | inhibition at 20 ppm (Fusarium culmorum): ≥ 80%

Cc1ccc2c(c1F)SC(C)(C)N=C2c1cnc2c(F)c(F)ccc2c1 [E.16, 4-(7,8-difluoro-3-quinolyl)-8-fluoro-2,2,7-trimethyl-1,3-benzothiazine]
inhibition at 20 ppm [3]: ≥ 80% | inhibition at 20 ppm [6]: ≥ 80% | pest or weed control at 60 ppm [4]: ≥ 80% | inhibition at 20 ppm (Fusarium culmorum): ≥ 80%

CC1(C)N=C(c2cnc3c(F)cccc3n2)c2cccc(Cl)c2S1 [E.17, 8-chloro-4-(5-fluoroquinoxalin-2-yl)-2,2-dimethyl-1,3-benzothiazine]
inhibition at 20 ppm [3]: ≥ 80% | inhibition at 20 ppm [6]: ≥ 80% | inhibition at 20 ppm [5]: ≥ 80% | inhibition at 20 ppm (Fusarium culmorum): ≥ 80%

CC1(Cc2ccc(Cl)nc2)N=C(c2cnc3c(F)c(F)ccc3c2)c2cccc(Cl)c2S1 (stereo not shown) [E.18, 8-chloro-2-[(6-chloro-3-pyridyl)methyl]-4-(7,8-difluoro-3-quinolyl)-2-methyl-1,3-benzothiazine]
inhibition at 20 ppm [3]: ≥ 80% | inhibition at 20 ppm [6]: ≥ 80% | inhibition at 20 ppm [5]: ≥ 80%

CC1(Cc2ccc(Cl)nc2)N=C(c2cnc3c(F)cccc3c2)c2cccc(Cl)c2S1 (stereo not shown) [E.19, 8-chloro-2-[(6-chloro-3-pyridyl)methyl]-4-(8-fluoro-3-quinolyl)-2-methyl-1,3-benzothiazine]
inhibition at 20 ppm [3]: ≥ 80% | inhibition at 20 ppm [6]: ≥ 80% | inhibition at 20 ppm [5]: ≥ 80% | inhibition at 20 ppm (Fusarium culmorum): ≥ 80%

Cc1nc2c(F)cccc2cc1C1=NC(C)(C)Sc2c(Cl)cccc21 [E.20, 8-chloro-4-(8-fluoro-2-methyl-3-quinolyl)-2,2-dimethyl-1,3-benzothiazine]
inhibition at 20 ppm [3]: ≥ 80% | inhibition at 20 ppm [6]: ≥ 80% | melting point: 134 to 136 °C | inhibition at 20 ppm [5]: ≥ 80%

Cc1c(Cl)ccc2c1SC(C)(C)N=C2c1cnc2c(F)c(F)ccc2c1 [E.21, 7-chloro-4-(7,8-difluoro-3-quinolyl)-2,2,8-trimethyl-1,3-benzothiazine]
inhibition at 20 ppm [3]: ≥ 80% | inhibition at 20 ppm [6]: ≥ 80% | melting point: 161 to 163 °C | inhibition at 20 ppm (Fusarium culmorum): ≥ 80%

Cc1c(C#N)ccc2c1SC(C)(C)N=C2c1cnc2c(F)c(F)ccc2c1 [E.22, 4-(7,8-difluoro-3-quinolyl)-2,2,8-trimethyl-1,3-benzothiazine-7-carbonitrile]
inhibition at 20 ppm [3]: ≥ 80% | melting point: 216 to 218 °C

Cc1c(C#N)ccc2c1SC(C)(C)N=C2c1cnc2c(F)cccc2c1 [E.23, 4-(8-fluoro-3-quinolyl)-2,2,8-trimethyl-1,3-benzothiazine-7-carbonitrile]
inhibition at 20 ppm [3]: ≥ 80% | inhibition at 20 ppm [6]: ≥ 80% | melting point: 88 to 90 °C | inhibition at 20 ppm (Fusarium culmorum): ≥ 80%

COc1c(Cl)ccc2c1SC(C)(C)N=C2c1cnc2c(F)cccc2c1 [E.24, 7-chloro-4-(8-fluoro-3-quinolyl)-8-methoxy-2,2-dimethyl-1,3-benzothiazine]
inhibition at 20 ppm [3]: ≥ 80% | inhibition at 20 ppm [6]: ≥ 80% | inhibition at 20 ppm (Fusarium culmorum): ≥ 80%

Cc1c(Cl)ccc2c1SC(C)(C)N=C2c1cnc2c(F)cccc2c1 [E.25, 7-chloro-4-(8-fluoro-3-quinolyl)-2,2,8-trimethyl-1,3-benzothiazine]
inhibition at 20 ppm [3]: ≥ 80% | pest or weed control at 60 ppm [4]: ≥ 80% | melting point: 68 to 70 °C | inhibition at 20 ppm [5]: ≥ 80% | inhibition at 20 ppm (Fusarium culmorum): ≥ 80%
